Measurements: US20260224549A1, “COMPOUNDS, COMPOSITIONS, AND METHODS FOR TREATING, AMELIORATING, AND/OR PREVENTING PAIN” (priority 2023, published 2026)

Columns and labels:
[1] = system: rats; settings: exposures far above the ED50 in rats
[2] = clinical; settings: for AUC(0-t) / Cmax / Tmax: human
Protocol: The reference treatment i fasted condition for all comparisons.
Eight subjects in Cohort A3 participated in a 2-period treatment design in which they were assessed for the single-dose of drug substance in a Fasted condition and in a Fed condition. Subjects were to receive the same treatment (i.e., either drug substance or placebo) in both Period 1 and Period 2, and thus subjects would receive either two single doses of drug substance or two single doses of placebo during their participation in the study. Fasting state assessments occurred in Period 1 and Fed State assessments in Period 2. It was planned that an approximate 7-day washout would be needed between the Fast and Fed dosing periods. Note that PD assessments were not performed for the food effect Cohort A3.
Note that PD assessments were not performed for the Food Effect cohort.
For Part A Cohort A3, assessment of the food-effect was performed for the following PK parameters: • AUC0-last • Cmax • AUC0-inf

[3] = 120 mg DS (Fed), single oral dose, plasma, N = 6
[4] = 120 mg DS, Fed versus Fasted, n = 6

Compound: CN(C)C[C@H]1CN(CCc2ccsc2)CC[C@]1(O)c1cccc(C(N)=O)c1 [Compound I, 3-(3S, 4R)-3-((dimethylamino)methyl)-4-hydroxy-1-(2-(thiophen-3-yl)ethyl)piperidin-4-yl-benzamide]
- respiratory depression or other opiate-based adverse effects [1]: no respiratory depression or other opiate-based adverse effects
- abuse liability (Conditioned Place Preference, Drug Self-Administration, Drug Discrimination): no abuse liability
- Withdrawal symptoms (preclinical model): only minimal Withdrawal symptoms
- GLSM ratio (90% CI) fed/fasted, AUC0-last ([2]; 120 mg): 0.801 (0.688, 0.933)
- GLSM ratio (90% CI) fed/fasted, Cmax ([2]; 120 mg): 0.450 (0.238, 0.852)
- reduction of AUC0-last by food ([2]; 120 mg): approximately 20%
- reduction of peak concentrations by food ([2]; 120 mg): approximately 55%
- Tlast (time of last measurable concentration), Median [2, 3]: 48.0 h
- Tlast, Max [2, 3]: 48.0 h
- Tlast, Min [2, 3]: 36.0 h
- Tmax, Max [2, 3]: 6.02 h
- Tmax, Min [2, 3]: 1.00 h
- AUC0-last, Fed versus Fasted Ratio of GLSMs [2, 4]: 0.801
- Cmax, Fed versus Fasted Ratio of GLSMs [2, 4]: 0.450
- mean concentrations measurable through ([2]; 120 mg fed): 48 h
- AUC(0-t) ([2]; plasma, oral, 120 mg, AUC0-last (zero to 24 hours postdose), GLSM, 120 mg DS (Fasted), n = 6): 202 ng·h/mL
- AUC(0-t) ([2]; plasma, oral, 120 mg, AUC0-last (zero to 24 hours postdose), GLSM, 120 mg DS (Fed), n = 6): 162 ng·h/mL
- Cmax ([2]; plasma, oral, 120 mg, GLSM (geometric least squares mean), 120 mg DS (Fasted), n = 6): 81.9 ng/mL
- Cmax ([2]; plasma, oral, 120 mg, GLSM (geometric least squares mean), 120 mg DS (Fed), n = 6): 36.9 ng/mL
- Tmax ([2]; plasma, oral, 120 mg, individual Tmax range, with food): 1 to 6 h
- Tmax ([2]; plasma, oral, 120 mg, individual Tmax range, without food): 2 to 3 h
- Tmax ([2]; plasma, oral, 120 mg, median Tmax, with food): 2.6 h
- Tmax ([2]; plasma, oral, 120 mg, median Tmax, without food): 2.3 h
- AUC(0-t) ([2]; plasma, po, 120 mg, AUC0-last (zero to 24 hours postdose), Mean, 120 mg DS (Fed), single oral dose, N = 6): 166 ng·h/mL
- AUC(0-t) ([2]; plasma, po, 120 mg, AUC0-t (zero to the last quantifiable concentration), Mean, 120 mg DS (Fed), single oral dose, N = 6): 204 ng·h/mL
- Cmax ([2]; plasma, po, 120 mg, Mean, 120 mg DS (Fed), single oral dose, N = 6): 45.2 ng/mL
- Tmax ([2]; plasma, po, 120 mg, Tmax, Median, 120 mg DS (Fed), single oral dose, N = 6): 2.58 h
